Source: US20230108906A1, “SUBSTITUTED BICYCLIC AND TRICYCLIC UREAS AND AMIDES, ANALOGUES THEREOF, AND METHODS USING SAME” (Arbutus Biopharma Corporation, priority 2019, published 2023)

What follows are compounds tested on HBV rcDNA in HepDE19 cells (assay: HepDE19 assay with bDNA quantitation of HBV rcDNA). Details: Hepatitis B virus, HepDE19, 168 h, inhibition of rcDNA formation in HepDE19 cells (HepG2 derived), Tet-free medium, 7 day incubation, Quantigene 2.0 bDNA readout, top concentration 25 μM; read-out: DE-19bDNA EC50.
Format: cell-based, hepatitis B virus (HBV)
Description: HepDE19 Assay with bDNA Quantitation of HBV rcDNA:
HepDE19 cell culture system is a HepG2 (human hepatocarcinoma) derived cell line that supports HBV DNA replication and cccDNA formation in a tetracycline (Tet)-regulated manner and produces HBV rcDNA and a detectable reporter molecule dependent on the production and maintenance of cccDNA (Guo, et al., 2007, J. Virol. 81:12472-12484).
HepDE19 (50,000 cells/well) were plated in 96-well collagen-coated tissue-culture treated microtiter plates in DMEM/F12 medium supplemented with 10% fetal bovine serum, 1% penicillin-streptomycin and 1 μg/mL tetracycline and incubated in a humidified incubator at 37° C. and 5% CO2 overnight. Next day, the cells were switched to fresh medium without tetracycline and incubated for 4 hours at 37° C. and 5% CO2. The cells were treated with fresh Tet-free medium with compounds at concentrations starting at 25 μM and a serial, […], 8-point, titration series in duplicate. The final DMSO concentration in the assay was 0.5%. The plates were incubated for 7 days in a humidified incubator at 37° C. and 5% CO2. Following a 7 day-incubation, the level of rcDNA present in the inhibitor-treated wells was measured using a Quantigene 2.0 bDNA assay kit (Affymetrix, Santa Clara, Calif.) with HBV specific custom probe set and manufacturers instructions. Concurrently, the effect of compounds on cell viability was assessed using replicate plates, plated at a density of 5,000 cells/well and incubated for 4 days, to determine the ATP content as a measure of cell viability using the cell-titer glo reagent (CTG; Promega Corporation, Madison, Wis.) as per manufacturer's instructions. The plates were read using a Victor luminescence plate reader (PerkinElmer Model 1420 Multilabel counter) and the relative luminescence units (RLU) data generated from each well was calculated as % inhibition of the untreated control wells and analyzed using XL-Fit module in Microsoft Excel to determine EC50 and EC90 (bDNA) and CC50 (CTG) values using a 4-parameter curve fitting algorithm.
Representative compounds of the disclosure were tested for their abilities to inhibit formation of relaxed circular DNA (rcDNA) in a HepDE19 assay, as described elsewhere herein.

Compound	EC50 [nM]
CN(C(=O)Nc1ccc(F)c(Cl)c1)C1COCc2[nH]c(=O)c3cc(F)ccc3c21 (racemic) [Compound 23, 3-(3-Chloro-4-fluorophenyl)-1-(8-fluoro-6-oxo-1,4,5,6-tetrahydro-2H-pyrano[3,4-c]isoquinolin-1-yl)-1-methylurea]	20
O=C(Nc1ccc(F)c(Cl)c1)N(CCCO)C1CCCc2[nH]c(=O)c3ccccc3c21 (stereo not shown) [Compound 7, 3-(3-Chloro-4-fluorophenyl)-1-(3-hydroxypropyl)-1-(6-oxo-1,2,3,4,5,6-hexahydrophenanthridin-1-yl)urea]	750
O=C(Nc1ccc(F)c(Cl)c1)N(CCCO)C1CCc2[nH]c(=O)c3ccccc3c21 (stereo not shown) [Compound 14, 3-(3-Chloro-4-fluorophenyl)-1-(3-hydroxypropyl)-1-(5-oxo-2,3,4,5-tetrahydro-1H-cyclopenta[c]isoquinolin-1-yl)urea]	100
CN(C(=O)Nc1ccc(F)c(Cl)c1)C1CCCc2[nH]c(=O)c3cc(F)c(F)cc3c21 (racemic) [Compound 15, 3-(3-Chloro-4-fluorophenyl)-1-(8,9-difluoro-6-oxo-1,2,3,4,5,6-hexahydrophenanthridin-1-yl)-1-methylurea]	20
CC(C)CN(C(=O)Nc1ccc(F)c(Cl)c1)C1CCCc2[nH]c(=O)cc(C(F)(F)F)c21 (stereo not shown) [Compound 1, 3-(3-Chloro-4-fluorophenyl)-1-isobutyl-1-(2-oxo-4-(trifluoromethyl)-1,2,5,6,7,8-hexahydroquinolin-5-yl)urea]	520
CN(C(=O)Nc1ccc(F)c(Cl)c1)C1COCc2[nH]c(=O)c3ccccc3c21 (racemic) [Compound 18, 3-(3-Chloro-4-fluorophenyl)-1-methyl-1-(6-oxo-1,4,5,6-tetrahydro-2H-pyrano[3,4-c]isoquinolin-1-yl)urea]	30
CCN(C(=O)Nc1ccc(F)c(Cl)c1)C1COCc2[nH]c(=O)c3cc(F)ccc3c21 (stereo not shown) [Compound 44, 3-(3-Chloro-4-fluorophenyl)-1-ethyl-1-(8-fluoro-6-oxo-1,4,5,6-tetrahydro-2H-pyrano[3,4-c]isoquinolin-1-yl)urea]	10
CC(C)CN(C(=O)Nc1ccc(F)c(Cl)c1)C1CCCc2[nH]c(=O)c3cc(F)ccc3c21 (stereo not shown) [Compound 10, 3-(3-Chloro-4-fluorophenyl)-1-(8-fluoro-6-oxo-1,2,3,4,5,6-hexahydrophenanthridin-1-yl)-1-isobutylurea]	60
COc1nc2c(c3cc(F)c(F)cc13)[C@H](N(C)C(=O)Nc1ccc(F)c(Cl)c1)COC2 [Compound 244, (S)-3-(3-Chloro-4-fluorophenyl)-1-(8,9-difluoro-6-methoxy-1,4-dihydro-2H-pyrano[3,4-c]isoquinolin-1-yl)-1-methylurea]	80

Same assay, conditions: inhibition of rcDNA formation in HepDE19 cells (HepG2 derived), Tet-free medium, 7 day incubation, Quantigene 2.0 bDNA readout, top concentration 25 μM; read-out: DE-19bDNA EC50

Compound	EC50 [nM]
CN(C(=O)N1Cc2ccccc2C1)C1CNCc2[nH]c(=O)c3cc(F)c(F)cc3c21 (single isomer, unassigned) [Compound 222, N-(8,9-Difluoro-6-oxo-1,2,3,4,5,6-hexahydrobenzo[c][1,7]naphthyridin-1-yl)-N-methylisoindoline-2-carboxamide]	≥ 25000
CN(C(=O)Nc1ccc(F)c(C#N)c1)C1CSCc2[nH]c(=O)c3cc(F)ccc3c21 (single isomer, unassigned) [Compound 185, 3-(3-Cyano-4-fluorophenyl)-1-(8-fluoro-6-oxo-1,4,5,6-tetrahydro-2H-thiopyrano[3,4-c]isoquinolin-1-yl)-1-methylurea]	3300
Cc1cc(NC(=O)N(CC(C)C)C2COCc3[nH]c(=O)c4cc(F)ccc4c32)ccc1F (single isomer, unassigned) [Compound 131, 3-(4-Fluoro-3-methylphenyl)-1-(8-fluoro-6-oxo-1,4,5,6-tetrahydro-2H-pyrano[3,4-c]isoquinolin-1-yl)-1-isobutylurea]	10
CN(C(=O)Nc1ccc(F)c(C#N)c1)C1C[S+]([O-])Cc2[nH]c(=O)c3cc(F)ccc3c21 (single isomer, unassigned) [Compound 200, 3-(3-Cyano-4-fluorophenyl)-1-(8-fluoro-3-oxido-6-oxo-1,4,5,6-tetrahydro-2H-thiopyrano[3,4-c]isoquinolin-1-yl)-1-methylurea]	≥ 25000
CN(C(=O)Nc1ccc(F)c(F)c1)C1CCCc2[nH]c(=O)c3c(c21)CCOC3 (single isomer, unassigned) [Compound 63, 3-(3,4-Difluorophenyl)-1-methyl-1-(5-oxo-1,4,5,6,7,8,9,10-octahydro-2H-pyrano[3,4-c]quinolin-10-yl)urea]	3100
CN(C(=O)Nc1ccc(F)c(Cl)c1)C1CSCc2[nH]c(=O)c3cc(F)c(F)cc3c21 (single isomer, unassigned) [Compound 187, 3-(3-Chloro-4-fluorophenyl)-1-(8,9-difluoro-6-oxo-1,4,5,6-tetrahydro-2H-thiopyrano[3,4-c]isoquinolin-1-yl)-1-methylurea]	900
CN(C(=O)Nc1ccc(F)c(C#N)c1)C1C[S+]([O-])Cc2[nH]c(=O)c3cc(F)c(F)cc3c21 (single isomer, unassigned) [Compound 213, 3-(3-Cyano-4-fluorophenyl)-1-(8,9-difluoro-3-oxido-6-oxo-1,4,5,6-tetrahydro-2H-thiopyrano[3,4-c]isoquinolin-1-yl)-1-methylurea]	1000
CN1Cc2[nH]c(=O)c3cc(F)c(F)cc3c2C(N(C)C(=O)Nc2ccc(F)c(Cl)c2)C1 (single isomer, unassigned) [Compound 168, 3-(3-Chloro-4-fluorophenyl)-1-(8,9-difluoro-3-methyl-6-oxo-1,2,3,4,5,6-hexahydrobenzo[c][1,7]naphthyridin-1-yl)-1-methylurea]	180
CN(C(=O)Nc1ccc(F)c(Cl)c1)C1CCCc2[nH]c(=O)c3ccccc3c21 (single isomer, unassigned) [Compound 16, 3-(3-Chloro-4-fluorophenyl)-1-methyl-1-(6-oxo-1,2,3,4,5,6-hexahydrophenanthridin-1-yl)urea]	760
CN1Cc2[nH]c(=O)c3cc(F)ccc3c2C(N(C)C(=O)Nc2ccc(F)c(Cl)c2)C1 (single isomer, unassigned) [Compound 155, 3-(3-Chloro-4-fluorophenyl)-1-(8-fluoro-3-methyl-6-oxo-1,2,3,4,5,6-hexahydrobenzo[c][1,7]naphthyridin-1-yl)-1-methylurea]	9200
CN(C(=O)Nc1cc(F)c(F)c(F)c1)C1COCc2[nH]c(=O)c3cc(F)c(F)cc3c21 (single isomer, unassigned) [Compound 133, 1-(8,9-Difluoro-6-oxo-1,4,5,6-tetrahydro-2H-pyrano[3,4-c]isoquinolin-1-yl)-1-methyl-3-(3,4,5-trifluorophenyl)urea]	20
CN(C(=O)Nc1ccc(F)c(Cl)c1)C1COCc2[nH]c(=O)c3c(c21)CCOC3 (single isomer, unassigned) [Compound 92, 3-(3-Chloro-4-fluorophenyl)-1-methyl-1-(6-oxo-1,2,4,5,6,7,9,10-octahydrodipyrano[3,4-b:4′,3′-d]pyridin-1-yl)urea]	150
CN(C(=O)Nc1ccc(F)c(C#N)c1)C1CSCc2[nH]c(=O)c3cc(F)c(F)cc3c21 (single isomer, unassigned) [Compound 190, 3-(3-Cyano-4-fluorophenyl)-1-(8,9-difluoro-6-oxo-1,4,5,6-tetrahydro-2H-thiopyrano[3,4-c]isoquinolin-1-yl)-1-methylurea]	20
CN(C(=O)Nc1ccc(F)c(Cl)c1)C1CNCc2[nH]c(=O)c3cc(F)c(F)cc3c21 (single isomer, unassigned) [Compound 150, 3-(3-Chloro-4-fluorophenyl)-1-(8,9-difluoro-6-oxo-1,2,3,4,5,6-hexahydrobenzo[c][1,7]naphthyridin-1-yl)-1-methylurea]	10
CN(C(=O)Nc1ccc(F)c(Cl)c1)C1CN(CCO)Cc2[nH]c(=O)c3cc(F)c(F)cc3c21 (single isomer, unassigned) [Compound 179, 3-(3-Chloro-4-fluorophenyl)-1-(8,9-difluoro-3-(2-hydroxyethyl)-6-oxo-1,2,3,4,5,6-hexahydrobenzo[c][1,7]naphthyridin-1-yl)-1-methylurea]	7300
CN(C(=O)Nc1ccc(F)c(Cl)c1)C1CN(CCO)Cc2[nH]c(=O)c3cc(F)ccc3c21 (single isomer, unassigned) [Compound 170, 3-(3-Chloro-4-fluorophenyl)-1-(8-fluoro-3-(2-hydroxyethyl)-6-oxo-1,2,3,4,5,6-hexahydrobenzo[c][1,7]naphthyridin-1-yl)-1-methylurea]	3100
